Data as given in US11505574B2, “Modulation of P53 for the treatment of cancer” (THE REGENTS OF THE UNIVERSITY OF CALIFORNIA, priority 2016, dated 2022).
“Also recorded” adds a separate entry of the source.

Experiments:
[1] = test system: p53; assay: Western blot for p53 in MCF7 cells treated with oligonucleotides; format: cell-based, human; conditions: MCF7 cells; oligonucleotide 50 nM; 24 hours (FIG. 2)
[2] = test system: p53; assay: Western blot for p53 and downstream targets in RKO cells treated with peptides; format: cell-based, human; conditions: RKO cells; for p53 protein expression compared to Pep8 (Western blot) / p53 and p21 expression after low-dose doxorubicin treatment (Western blot): 375 nM peptide with 7.5 μM PEP1; for p53 protein expression compared to Pep8 (Western blot): 18 hours (FIG. 37A); for p53 expression (Western blot): 300 nM peptide with 6 μM PEP1, 24 hours (FIG. 31A); for p53 and p21 expression after low-dose doxorubicin treatment (Western blot): 6.25 ng/mL doxorubicin 18 hours (FIG. 34G); for expression of p53 and downstream targets with low-dose doxorubicin (Western blot): complexes of CPPs and peptide plus doxorubicin 6.25 ng/mL (FIG. 19A); for expression of p53 (Western blot): peptide complexed with PEP1 (FIG. 13A)
[3] = test system: p53; assay: Western blot for p53 and downstream targets in MCF7 cells treated with peptides; format: cell-based, human; conditions: for p53 expression (Western blot) / protein expression of p53 and downstream targets p21 and MDM2 (Western blot) / p53 and p21 expression after low-dose doxorubicin treatment (Western blot) / doxorubicin-mediated p53 and p21 upregulation (Western blot) / expression of p53 and downstream targets with low-dose doxorubicin (Western blot) / expression of p53 and downstream targets p21 and MDM2 (Western blot): MCF7 cells; for p53 expression (Western blot): 300 nM peptide with 6 μM PEP1, 24 hours (FIG. 31B); for protein expression of p53 and downstream targets p21 and MDM2 (Western blot): 300 nM peptide with 6 μg PEP1 (20:1 PEP1 to peptide), 18 hours (FIG. 1A); for p53 and p21 expression after low-dose doxorubicin treatment (Western blot): 375 nM peptide with 7.5 μM PEP1, 6.25 ng/mL doxorubicin 18 hours (FIG. 34H); for doxorubicin-mediated p53 and p21 upregulation (Western blot): 375 nM peptide with (20:1) plus 6.25 ng/mL doxorubicin, 18 hours (FIG. 1C); for expression of p53 and downstream targets with low-dose doxorubicin (Western blot): complexes of CPPs and peptide plus doxorubicin 6.25 ng/mL (FIG. 19B); for expression of p53 and downstream targets p21 and MDM2 (Western blot): complexes with PEP1 (FIG. 13B)
[4] = test system: MCF7 cells; assay: MCF7 cell colony formation assay (peptides); format: cell-based, human; conditions: for MCF7 cell colony formation: 375 nM peptide with 7.5 μg PEP1 (20:1) (FIG. 1B); for inhibition of colony formation by low-dose doxorubicin: MCF7 cells, 375 nM peptide with 7.5 μg PEP1 (20:1) plus 3.125 ng/mL doxorubicin (FIG. 1D); for colony formation in MCF7 cells: complexes of peptide and PEP1 (FIG. 18)
Protocol: In order to test the effect of the RBM38 and eIF4E peptides on cancer cell colony formation, MCF7 cells were seeded in 6-well plates at a density of 1×10^3 cells per well. The following day, cells were treated with peptides. In order to form stable complexes with PEP1, 100 μl of serum-free DMEM was added to individual Eppendorf tubes. Control (SEQ ID NO:11), RBM38, and eIF4E peptides were added at a concentration of 375 nM and then 7.5 μg of PEP1 was added to each peptide (20:1). The complexes were incubated for 20 minutes at room temperature and then added dropwise to cells. Cell media was changed every three days until colonies were visible. The cells were fixed and then stained with crystal violet.
In order to test the effect of a combination treatment comprising peptides of the present invention and a chemotherapeutic agent on cancer cell colony formation, MCF7 cells were seeded in 6-well plates at a density of 1×10^3 cells per well. The following day, cells were treated with peptides. In order to form stable complexes with PEP1, 100 μL of serum-free DMEM was added to individual Eppendorf tubes. Control, RBM38, eIF4E, and peptide-8 peptides were added at a concentration of 375 nM and then 7.5 μg of PEP1 was added to each peptide (20:1). The complexes were incubated for 20 minutes at room temperature and then added dropwise to cells. 20 minutes after addition of peptide complexes, 3.125 ng/mL doxorubicin was added to the cells. Cell media was changed every three days until colonies were visible. The cells were fixed and then stained with crystal violet.
For the experiments shown in FIG. 34C, MCF7 cells were seeded on a 6-well plate at a seed density of 1×10^3 cells per well. The following day the cells were treated with 5 μM Pen-Ctrl or 5 μM Pen-Pep23. The following day, 6.25 ng/mL doxorubicin was added to the cells for 48 hours. Subsequently, the cell media was changed every 3 days until colonies were visible. The cells were fixed and stained with crystal violet.

[5] = test system: tumor cell colony formation; assay: Tumor cell colony formation assay, cell line not stated (FIGS. 13C, 20D); format: cell-based; conditions: complexes with PEP1 (FIG. 13C)
[6] = test system: U20S; assay: U20S cell colony formation assay (FIG. 18); format: cell-based, human; conditions: complexes of peptide and PEP1 (FIG. 18)
[7] = test system: MIA-PaCa-2 pancreatic cancer cells; assay: MIA-PaCa-2 cell colony formation assay (peptides); format: cell-based, human; conditions: complexes of peptide and PEP1 (FIG. 18)
From the text: […] […] After colonies formed they were fixed (i.e., using 7:1 MeOH:glacial acetic acid) and stained with crystal violet.

[8] = test system: RKO cells; assay: RKO cell colony formation assay (oligonucleotides); format: cell-based; conditions: 5 μM oligonucleotide for 24 hours; versus M3 control (FIG. 30)
From the text: Another strategy is to use oligonucleotides to block the interaction between RBM38 and the 3′ untranslated region (UTR) of p53 in order to modulate p53 translation (FIG. 26). To this end, a region of the p53 3′ UTR where RBM38 interacts (FIG. 27) was identified (SEQ ID NO:15) and several oligonucleotides having complementarity to this sequence (e.g., SEQ ID NOS:16-21) were designed.

In the case of “AAAGAAAAAAGAAAAAAAA (listed as DNA, chemistry not given here) [18T-AS-19]”, the “level of p53 (Western blot)” value [1] is reported as “level of p53 was increased”.
In the case of YPYAAKPA [Pep8-SK, Pep8 mutant], the “p53 protein expression compared to Pep8 (Western blot)” value [2] is reported as “stronger ability to induce p53 protein expression compared to Pep8”.
For “AAAGAAAAAAGAAAAAAAAAAAAAAAAAAGAAAAAGAA (listed as DNA, chemistry not given here) [18T-AS]”, the “level of p53 (Western blot)” value [1] was “level of p53 was increased”.
In the case of IGYQSHADTATKSGSTTKNRFVV [eIF4E], the “p53 expression (Western blot)” value [3] is reported as “able to increase p53 expression”, the “protein expression of p53 and downstream targets p21 and MDM2 (Western blot)” value [3] is reported as “increased protein expression of p53 and the downstream targets p21 and mouse double minute 2 homolog (MDM2); also recorded: increasing p53 protein levels; also recorded: induced p53 and downstream targets p21 and MDM2” and the “p53 and p21 expression after low-dose doxorubicin treatment (Western blot)” value (“p53 and p21 expression” for short) [3] is reported as “further increased p53 and p21 expression”. For the same sequence, the “doxorubicin-mediated p53 and p21 upregulation (Western blot)” value [3] was “enhanced the effect of doxorubicin-mediated p53 and p21 upregulation; also recorded: able to enhance the induction of p53 and p21”, the “expression of p53 and downstream targets with low-dose doxorubicin (Western blot)” value [3] was “increased the expression of p53 and downstream targets” and the “expression of p53 and downstream targets p21 and MDM2 (Western blot)” value [3] was “expression of p53 and downstream targets p21 and MDM2 was increased”. The “p53 expression (Western blot)” value [2] was “able to increase p53 expression”, the “p53 and p21 expression” value [2] was “further increased p53 and p21 expression” and the “expression of p53 and downstream targets with low-dose doxorubicin (Western blot)” value [2] was “increased the expression of p53 and downstream targets”. The “expression of p53 (Western blot)” value [2] was “expression of p53 was increased relative to controls”, the “MCF7 cell colony formation” value [4] was “able to inhibit MCF7 cell colony formation; also recorded: able to suppress colony formation of MCF7 breast cancer cells; also recorded: decreased colony formation” and the “inhibition of colony formation by low-dose doxorubicin” value (“inhibition of colony formation” below) [4] was “enhanced the inhibition of colony formation by low-dose doxorubicin; also recorded: led to decreased colony formation”. For the same sequence, the “colony formation in MCF7 cells” value [4] was “inhibited colony formation”, the “tumor cell colony formation” value [5] was “successful at inhibiting tumor cell colony formation” and the “colony formation in U20S cells” value [6] was “inhibited colony formation”. The “colony formation in MIA-PaCa-2 pancreatic cancer cells” value [7] was “inhibited colony formation”.
For “AAAGAAAAAAGAAAA (listed as DNA, chemistry not given here) [18T-AS-15]”, the “level of p53 (Western blot)” value [1] was “level of p53 was increased”.
With “QYPPATYDQYPYAASPATAASFVGYSYPAAVPQALSAAAP [RBM38]” the “p53 expression (Western blot)” value [3] was “able to increase p53 expression”, the “protein expression of p53 and downstream targets p21 and MDM2 (Western blot)” value [3] was “increased protein expression of p53 and the downstream targets p21 and mouse double minute 2 homolog (MDM2); also recorded: increasing p53 protein levels; also recorded: induced p53 and downstream targets p21 and MDM2” and the “p53 and p21 expression” value [3] was “further increased p53 and p21 expression”. The “doxorubicin-mediated p53 and p21 upregulation (Western blot)” value [3] was “enhanced the effect of doxorubicin-mediated p53 and p21 upregulation; also recorded: able to enhance the induction of p53 and p21”, the “expression of p53 and downstream targets with low-dose doxorubicin (Western blot)” value [3] was “increased the expression of p53 and downstream targets” and the “expression of p53 and downstream targets p21 and MDM2 (Western blot)” value [3] was “expression of p53 and downstream targets p21 and MDM2 was increased”. The “p53 expression (Western blot)” value [2] was “able to increase p53 expression”, the “p53 and p21 expression” value [2] was “further increased p53 and p21 expression” and the “expression of p53 and downstream targets with low-dose doxorubicin (Western blot)” value [2] was “increased the expression of p53 and downstream targets”. For the same sequence, the “expression of p53 (Western blot)” value [2] was “expression of p53 was increased relative to controls”, the “MCF7 cell colony formation” value [4] was “able to inhibit MCF7 cell colony formation; also recorded: able to suppress colony formation of MCF7 breast cancer cells; also recorded: decreased colony formation” and the “inhibition of colony formation” value [4] was “enhanced the inhibition of colony formation by low-dose doxorubicin”. For the same sequence, the “tumor cell colony formation” value [5] was “successful at inhibiting tumor cell colony formation”.
For YPYAARPA [Pep8-SR, Pep8 mutant], the “p53 protein expression compared to Pep8 (Western blot)” value [2] was “stronger ability to induce p53 protein expression compared to Pep8”.
With “AAAAAAGAAAAAAAA (chemistry not given here) [14A/G]” the “level of p53 (Western blot)” value [1] was “level of p53 was increased” and the “RKO tumor cell colony formation” value [8] was “inhibited RKO tumor cell colony formation after 24 hours more than the M3 control oligonucleotide did”.
In the case of YPYAASPA [peptide-8], the “induction of p53 (Western blot)” value ([3]; MCF7 cells 375 nM, 50 nM or 150 nM, RKO cells 150 nM (FIG. 16)) is reported as “stronger induction of p53 than the longer RBM38 and eIF4E peptides; also recorded: increases p53 expression”, the “p53 and p21 expression” value [3] is reported as “further increased p53 and p21 expression” and the “doxorubicin-mediated p53 and p21 upregulation (Western blot)” value [3] is reported as “enhanced the effect of doxorubicin-mediated p53 and p21 upregulation; also recorded: able to enhance the induction of p53 and p21”. The “expression of p53 and downstream targets with low-dose doxorubicin (Western blot)” value [3] was “increased the expression of p53 and downstream targets”, the “p53 protein levels (Western blot)” value ([2]; 50 nM peptide with 1 μM PEP1, 18 hours (FIG. 32A)) was “could induce p53 protein levels” and the “p53 and p21 expression” value [2] was “further increased p53 and p21 expression”. For the same sequence, the “expression of p53 and downstream targets with low-dose doxorubicin (Western blot)” value [2] was “increased the expression of p53 and downstream targets”, the “inhibition of colony formation” value [4] was “enhanced the inhibition of colony formation by low-dose doxorubicin; also recorded: led to decreased colony formation” and the “colony formation in MCF7 cells” value [4] was “inhibited colony formation”. The “colony formation in U20S cells” value [6] was “inhibited colony formation” and the “colony formation in MIA-PaCa-2 pancreatic cancer cells” value [7] was “inhibited colony formation”.
For “AAAGAAAAAAGAAAAAAAAAAAAAAAAAA (listed as DNA, chemistry not given here) [18T-AS-29]”, the “level of p53 (Western blot)” value [1] was “level of p53 was increased”.
In the case of “AAAAAAAAAAAAAAAAAA (listed as DNA, chemistry not given here) [15A]”, the “level of p53 (Western blot)” value [1] is reported as “level of p53 was increased” and the “RKO tumor cell colony formation” value [8] is reported as “inhibited RKO tumor cell colony formation after 24 hours more than the M3 control oligonucleotide did”.
